# According to ChEMBL document CHEMBL6092203, “Discovery of Novel PROTAC-Based HPK1 Degraders with High Potency and Selectivity for Cancer Immunotherapy” (J Med Chem, 2024):
# The source made the active and inactive calls. The calls are words filed in the database; no cut-off is given here.
# Tests used:
# [1] = biological target: T1, Protein cereblon/Mitogen-activated protein kinase kinase kinase kinase 1 (Homo sapiens, UniProt Q92918+Q96SW2); experiment: PROTAC activity at CRBN/HPK1 in human Jurkat cells assessed as HPK1 degradation at 1 uM by Western blotting analysis; type: cell-based; details: time 4-72 hrs
# [2] = Induction of p-SLP76 at Ser376 protein degradation in human Jurkat cells incubated for 24 hrs by Western blotting analysis; type: cell-based
# Jurkat = experiment: Effect on p-SLP76 at Y145 residue protein expression in human Jurkat cells at 1 to 2000 nM incubated for 24 hrs by Western blotting analysis; type: functional, cell-based; details: dose 1-2000 nM
# [3] = biological target: T1, Protein cereblon/Mitogen-activated protein kinase kinase kinase kinase 1; experiment: PROTAC activity at CRBN/HPK1 in human Jurkat cells assessed as HPK1 degradation at 1 uM measured after 24 hrs by Western blotting analysis; type: cell-based
# [4] = biological target: Mitogen-activated protein kinase kinase kinase kinase 4 (Homo sapiens) (UniProt O95819); experiment: Induction of HGK degradation in human Jurkat cells at 1 to 1000 nM incubated for 24 hrs by Western blotting analysis; type: cell-based; details: dose 1-1000 nM
# [5] = Apparent permeability across apical to basolateral side in human Caco-2 cells at 10 uM incubated for 2 hrs by LC-MS/MS analysis; type: ADME, cell-based
# [6] = Plasma protein binding in human at 10 uM incubated for 6 hrs by equilibrium dialysis based LC-MS/MS method; type: ADME, cell-free; details: read-out: PPB
# Cytochrome P450 1A2 = biological target: T2, Cytochrome P450 1A2 (Homo sapiens, UniProt P05177); experiment: Inhibition of CYP1A2 in human liver microsomes using phenacetin as substrate in presence of NADPH; type: ADME, Microsome
# T2 sequence (P05177 whole entry): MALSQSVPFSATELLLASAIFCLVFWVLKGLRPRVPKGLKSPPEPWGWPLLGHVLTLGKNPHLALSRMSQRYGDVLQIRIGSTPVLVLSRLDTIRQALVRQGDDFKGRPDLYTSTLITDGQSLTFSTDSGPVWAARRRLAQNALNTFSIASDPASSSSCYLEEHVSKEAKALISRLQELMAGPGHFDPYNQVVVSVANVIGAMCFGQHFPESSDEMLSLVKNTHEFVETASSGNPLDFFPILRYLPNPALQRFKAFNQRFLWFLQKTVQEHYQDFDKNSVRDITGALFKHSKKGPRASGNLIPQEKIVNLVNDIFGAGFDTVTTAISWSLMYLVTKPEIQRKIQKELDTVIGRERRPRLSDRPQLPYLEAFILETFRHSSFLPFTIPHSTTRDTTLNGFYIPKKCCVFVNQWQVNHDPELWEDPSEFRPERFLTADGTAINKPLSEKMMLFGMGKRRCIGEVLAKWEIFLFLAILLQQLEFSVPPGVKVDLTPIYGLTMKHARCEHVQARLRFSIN
# [7] = Metabolic stability in rat liver microsomes assessed as intrinsic clearance at 1 uM incubated for 45 mins by LC-MS/MS method; type: ADME, Microsome; details: read-out: CLH
# [8] = Metabolic stability in dog liver microsomes assessed as intrinsic clearance at 1 uM incubated for 45 mins by LC-MS/MS method; type: ADME, Canis lupus familiaris, Microsome; details: read-out: CLH
# [9] = Half-life in C57BL/6J mouse at 10 mg/kg, po measured upto 24 hrs by LC-MS analysis; details: in vivo
# [10] = AUCinfinity in C57BL/6J mouse at 10 mg/kg, po measured upto 24 hrs by LC-MS analysis; type: ADME, organism-based; details: in vivo
# [11] = Initial plasma concentration in Sprague-Dawley rat at 2 mg/kg, iv measured upto 24 hrs by LC-MS analysis; type: ADME, organism-based
# [12] = AUCinfinity in Sprague-Dawley rat at 2 mg/kg, iv measured upto 24 hrs by LC-MS analysis; type: ADME, organism-based; details: in vivo
# [13] = Clearance in Beagle dog at 1 mg/kg, iv measured upto 24 hrs by LC-MS analysis; details: in vivo
# [14] = Half-life in Beagle dog at 5 mg/kg, po measured upto 24 hrs by LC-MS analysis; details: in vivo
# [15] = AUCinfinity in Beagle dog at 5 mg/kg, po measured upto 24 hrs by LC-MS analysis; type: ADME, organism-based, Canis lupus familiaris; details: in vivo
# [16] = Drug metabolism in monkey hepatocytes assessed as phase 1 metabolites formation at 10 uM incubated for 120 mins by UHPLC-UV/MS/MS method; type: ADME, cell-based, Macaca mulatta, Hepatocyte; details: rhesus monkey, 2 h
# [17] = Drug metabolism in dog hepatocytes assessed as phase 2 metabolites formation at 10 uM incubated for 120 mins by UHPLC-UV/MS/MS method; type: ADME, cell-based, Canis lupus familiaris, Hepatocyte; details: 2 h
# [18] = Drug metabolism in monkey hepatocytes assessed as phase 2 metabolites formation at 10 uM incubated for 120 mins by UHPLC-UV/MS/MS method; type: ADME, cell-based, Macaca mulatta, Hepatocyte; details: rhesus monkey, 2 h
# [19] = Drug distribution in rat gastrointestinal tract measured after 0.5 to 6 hrs; type: ADME, tissue-based; details: in vivo, time 0.5-6 hrs
# MC-38 [20] = experiment: Synergistic antitumor activity against mouse MC38 cells implanted in C57BL/6J mouse assessed as tumor growth inhibition at 100 mg/kg, po QD measured after 4 weeks in presence of 5 mg/kg anti-PD1 and measured twice a week; type: functional; details: MC-38, 672 h, read-out: TGI
# MC-38 [21] = experiment: Synergistic antitumor activity against mouse MC38 cells implanted in C57BL/6J mouse assessed as tumor growth inhibition at 1 mg/kg, po bid measured after 4 weeks in presence of 5 mg/kg anti-PD1 and measured twice a week; type: functional; details: MC-38, 672 h, read-out: TGI
# MC-38 [22] = experiment: Synergistic antitumor activity against mouse MC38 cells implanted in C57BL/6J mouse assessed as reduction in tumor volume at 0.5 mg/kg, po bid administered for 3 to 4 weeks in presence of 5 mg/kg anti-PD1 and measured twice a week (reference value: 1549.22 +/- 217.92 mm3); type: functional; details: time 3-4 weeks
# MC-38 [23] = experiment: Antitumor activity against mouse MC38 cells implanted in C57BL/6J mouse assessed as tumor weight inhibition rate at 100 mg/kg, po QD administered for 4 weeks; type: functional; design: scale not given: the % may be the effect or the level left
# [24] = Tmax in female Sprague-Dawley rat at 100 mg/kg/day, po measured at day 1; type: ADME, organism-based; details: in vivo, time 1 day
# [25] = AUC(0 to 24 hrs) in female Sprague-Dawley rat at 30 mg/kg/day, po measured at day 1; type: ADME, organism-based; details: in vivo, time 1 day
# [26] = AUC(0 to 24 hrs) in male Sprague-Dawley rat at 30 mg/kg/day, po measured at day 1; type: ADME, organism-based; details: in vivo, time 1 day
# [27] = AUC(0 to 24 hrs) in female Sprague-Dawley rat at 100 mg/kg/day, po measured at day 1; type: ADME, organism-based; details: in vivo, time 1 day
# [28] = Toxicity in C57BL/6J mouse assessed as change in body weight at 100 mg/kg, po qd measured after 28 days; type: organism-based; details: in vivo, 672 h, time 28 day
# in vivo [29] = details: Sprague-Dawley, rat, po, 1 mg/kg
# in vivo [30] = details: female, Sprague-Dawley, rat, po, 100 mg/kg
# in vivo [31] = details: male, Sprague-Dawley, rat, po, 100 mg/kg
# in vitro = details: rhesus monkey, hepatocytes
# T1 sequence (Q92918 whole entry, looked up): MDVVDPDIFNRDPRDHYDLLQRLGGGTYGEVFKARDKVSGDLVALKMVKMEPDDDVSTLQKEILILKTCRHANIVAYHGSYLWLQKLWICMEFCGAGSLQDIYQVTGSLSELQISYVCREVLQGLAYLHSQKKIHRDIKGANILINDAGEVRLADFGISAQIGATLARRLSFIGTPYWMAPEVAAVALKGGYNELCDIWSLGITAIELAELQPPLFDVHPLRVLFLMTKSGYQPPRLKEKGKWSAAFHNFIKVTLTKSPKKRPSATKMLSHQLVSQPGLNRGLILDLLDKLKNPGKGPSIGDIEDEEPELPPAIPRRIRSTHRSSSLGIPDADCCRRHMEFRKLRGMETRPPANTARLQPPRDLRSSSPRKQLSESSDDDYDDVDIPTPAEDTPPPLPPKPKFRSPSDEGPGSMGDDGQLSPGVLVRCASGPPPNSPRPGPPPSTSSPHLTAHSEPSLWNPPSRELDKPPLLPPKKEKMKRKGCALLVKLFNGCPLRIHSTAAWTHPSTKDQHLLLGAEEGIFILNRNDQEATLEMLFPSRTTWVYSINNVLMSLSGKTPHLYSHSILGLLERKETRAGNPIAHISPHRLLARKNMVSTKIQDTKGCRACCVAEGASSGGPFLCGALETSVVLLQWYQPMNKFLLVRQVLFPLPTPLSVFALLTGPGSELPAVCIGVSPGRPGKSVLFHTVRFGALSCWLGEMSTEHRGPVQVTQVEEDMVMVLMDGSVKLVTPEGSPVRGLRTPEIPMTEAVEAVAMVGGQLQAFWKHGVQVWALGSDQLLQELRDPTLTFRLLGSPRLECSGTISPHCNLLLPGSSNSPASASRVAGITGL
# T1 sequence (Q96SW2 whole entry, looked up): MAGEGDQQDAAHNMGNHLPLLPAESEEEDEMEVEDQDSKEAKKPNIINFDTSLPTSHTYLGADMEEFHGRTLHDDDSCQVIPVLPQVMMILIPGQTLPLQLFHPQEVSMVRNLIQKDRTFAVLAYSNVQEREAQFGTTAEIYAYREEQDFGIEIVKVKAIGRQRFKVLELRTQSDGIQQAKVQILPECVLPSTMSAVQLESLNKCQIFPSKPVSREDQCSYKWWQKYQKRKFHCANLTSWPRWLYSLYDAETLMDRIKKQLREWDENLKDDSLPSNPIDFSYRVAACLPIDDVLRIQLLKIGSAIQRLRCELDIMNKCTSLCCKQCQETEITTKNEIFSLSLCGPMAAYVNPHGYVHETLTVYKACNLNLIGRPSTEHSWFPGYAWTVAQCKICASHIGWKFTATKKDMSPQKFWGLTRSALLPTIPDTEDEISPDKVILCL
# Sequence of Mitogen-activated protein kinase kinase kinase kinase 4 (Homo sapiens) (O95819 2-1239 limits assumed): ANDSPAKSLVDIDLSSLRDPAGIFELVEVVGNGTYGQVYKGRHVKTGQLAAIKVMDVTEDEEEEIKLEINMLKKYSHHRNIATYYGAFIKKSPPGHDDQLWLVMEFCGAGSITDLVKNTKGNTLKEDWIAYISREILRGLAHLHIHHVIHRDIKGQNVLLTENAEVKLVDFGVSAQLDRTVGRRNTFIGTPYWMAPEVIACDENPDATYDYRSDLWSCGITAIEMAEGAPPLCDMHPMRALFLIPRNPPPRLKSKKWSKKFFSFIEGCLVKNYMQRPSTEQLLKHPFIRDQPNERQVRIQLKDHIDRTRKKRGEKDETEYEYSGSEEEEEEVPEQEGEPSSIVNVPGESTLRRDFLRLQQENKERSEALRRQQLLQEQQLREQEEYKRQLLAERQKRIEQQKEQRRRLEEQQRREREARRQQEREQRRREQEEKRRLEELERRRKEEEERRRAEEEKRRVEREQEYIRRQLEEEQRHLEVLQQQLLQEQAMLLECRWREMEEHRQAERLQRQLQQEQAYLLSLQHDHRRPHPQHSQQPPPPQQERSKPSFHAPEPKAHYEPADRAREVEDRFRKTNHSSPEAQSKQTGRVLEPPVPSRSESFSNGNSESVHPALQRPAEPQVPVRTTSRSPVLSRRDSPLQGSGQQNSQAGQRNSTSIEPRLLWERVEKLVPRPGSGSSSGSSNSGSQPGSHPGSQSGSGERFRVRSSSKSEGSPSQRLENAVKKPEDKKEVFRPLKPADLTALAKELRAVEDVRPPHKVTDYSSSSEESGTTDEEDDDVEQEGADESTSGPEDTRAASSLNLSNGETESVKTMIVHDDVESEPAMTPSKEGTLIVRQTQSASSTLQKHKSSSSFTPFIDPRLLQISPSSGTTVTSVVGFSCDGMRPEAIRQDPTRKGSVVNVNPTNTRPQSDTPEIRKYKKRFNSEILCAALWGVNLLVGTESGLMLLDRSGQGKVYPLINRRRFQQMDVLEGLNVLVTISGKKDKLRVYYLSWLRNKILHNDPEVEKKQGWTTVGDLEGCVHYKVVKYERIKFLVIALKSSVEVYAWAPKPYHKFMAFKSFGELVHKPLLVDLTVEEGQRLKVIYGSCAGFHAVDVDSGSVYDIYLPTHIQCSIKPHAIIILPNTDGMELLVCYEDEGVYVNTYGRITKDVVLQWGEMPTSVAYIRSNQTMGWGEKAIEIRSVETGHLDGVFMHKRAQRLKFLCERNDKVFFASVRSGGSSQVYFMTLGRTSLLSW
smiles,measurement,setting,value
O=C1CCN(c2cc(C(=O)N3CCC(CC4CCN(c5ccc(-c6cnc7[nH]cc(-c8cnn(CC(F)(F)F)c8)c7n6)cn5)CC4)CC3)ccc2Cl)C(=O)N1,Activity,[1],Time-dependent-effect
same,DC50,[2],5.63 nM
same,Activity,Jurkat,inactive
same,Activity,[3],Active
same,Activity,[4],inactive
same,"Papp A→B at 2 h, 10 µM",[5],0.16 ×10⁻⁶ cm/s
same,"fraction unbound at 6 h, 10 µM",[6],0.001
same,IC50,Cytochrome P450 1A2,> 10000 nM
same,microsomal CLint at 1 µM,[7],5.62 µL/min/mg
same,microsomal CLint at 1 µM,[8],20.3 µL/min/mg
same,half-life at 24 h,[9],3.44 h
same,AUC(0-inf),[10],12100 ng·h/mL
same,C0 at 24 h,[11],3380 ng/mL
same,AUC(0-inf),[12],8220 ng·h/mL
same,clearance at 24 h,[13],17 mL/min/kg
same,half-life at 24 h,[14],4.23 h
same,AUC(0-inf),[15],796 ng·h/mL
same,Drug metabolism,[16],metabolite_detected
same,Drug metabolism,[17],metabolite_detected
same,Drug metabolism,[18],metabolite_detected
same,Drug uptake,[19],Active
same,inhibition in vivo at 100 mg/kg,MC-38 [20],91%
same,inhibition in vivo at 1 mg/kg,MC-38 [21],78.2%
same,Activity,MC-38 [22],139.36 mm3
same,Activity,MC-38 [23],48.76%
same,Tmax,[24],8 h
same,AUC(0-t) at 24 h,[25],51300 ng·h/mL
same,AUC(0-t) at 24 h,[26],38200 ng·h/mL
same,AUC(0-t) at 24 h,[27],110000 ng·h/mL
same,Activity,[28],Non-toxic
same,bioavailability at 24 h,in vivo [29],19.2%
same,Cmax at 336 h,in vivo [30],8590 ng/mL
same,AUC at 336 h,in vivo [31],151000 ng·h/mL
same,"half-life at 1.5 h, 1 µM",in vitro,1.3 h
